Results from patent publication US8580918B2, “Peptidic GLP-2 agonists” (Ferring B.V., priority 2009, dated 2013).
Where a SMILES comes first, the peptide text is derived from it. [ ]: non-standard residue; d: D form. Dip = N[C@H](C(=O)O)C(c1ccccc1)c1ccccc1; Phe(4-NH2) = Nc1ccc(C[C@H](N)C(=O)O)cc1; 1Nal = N[C@@H](Cc1cccc2ccccc12)C(=O)O; 2Nal = N[C@@H](Cc1ccc2ccccc2c1)C(=O)O; hPhe = N[C@@H](CCc1ccccc1)C(=O)O; Cha = N[C@@H](CC1CCCCC1)C(=O)O; Nle = CCCC[C@H](N)C(=O)O

Experiment: Pharmacokinetics in rats after intravenous bolus injection (systemic clearance)
Format: in vivo
Settings: rat, plasma, 0.2 mg FB/kg, adult male Sprague-Dawley rats, i.v. bolus, dose 0.20 mg FB/kg, read-out: CL (ml/kg/min) Average
Method: Pharmacokinetic (PK) parameters of illustrative agonists of the GLP-2 receptor were determined in adult male Sprague-Dawley rats post intravenous bolus injection of compounds at doses of 0.1-1.0 mg/kg. Three or four doubly cannulated animals per compound were dosed via jugular vein, blood samples were collected at several intervals via carotid artery, and plasma samples were prepared from whole blood using K2EDTA as anticoagulant. Subsequent bioanalysis of samples included compound extraction and plasma concentration determination using standard LC/MS/MS methods. Analyte concentration was calculated from internal standard normalized peak area and calibration curves.
For calculation of PK parameters the compound concentration-time curves were analyzed with the noncompartmental data analysis software package PK Solutions 2.0™ (Summit Research Services, Montrose Colo.). The systemic clearance per kg body weight (CL) was calculated as the dose per kg body weight divided by the AUC extrapolated to infinity based on trapezoid calculation (AUC∞). Values reported are the arithmetic mean and standard deviation from the number of animals used for each compound as indicated on Table 3.

Row | clearance [mL/kg/min] | SMILES
1 | 0.43 | CCCC[C@H](NC(=O)[C@H](CCC(=O)O)NC(=O)[C@H](CC(=O)O)NC(=O)[C@H](CO)NC(=O)[C@H](Cc1ccccc1)NC(=O)[C@H](CO)NC(=O)CNC(=O)[C@H](CC(=O)O)NC(=O)CNC(=O)[C@@H](N)Cc1cnc[nH]1)C(=O)N[C@@H](CC(N)=O)C(=O)N[C@H](C(=O)N[C@H](C(=O)N[C@@H](CC(C)C)C(=O)N[C@@H](CC(=O)O)C(=O)N[C@@H](Cc1cccc2ccccc12)C(=O)N[C@@H](CC(C)C)C(=O)N[C@@H](C)C(=O)N[C@@H](C)C(=O)N[C@@H](CCCNC(=N)N)C(=O)N[C@@H](CC(=O)O)C(=O)N[C@@H](Cc1ccccc1)C(=O)N[C@H](C(=O)N[C@@H](CC(N)=O)C(=O)N[C@@H](Cc1c[nH]c2ccccc12)C(=O)N[C@@H](CC(C)C)C(=O)N[C@H](C(=O)N[C@@H](CCC(N)=O)C(=O)N[C@H](C(=O)N[C@@H](CCCCN)C(N)=O)[C@@H](C)O)[C@@H](C)CC)[C@@H](C)CC)[C@@H](C)CC)[C@@H](C)O [Compound 17, [Gly2,Nle10,1-Nal16] hGLP-2 (1-30)-NH2] (H-HGDGSFSDE[Nle]NTILD[1Nal]LAARDFINWLIQTK-NH2)
2 | 0.5 | CCCC[C@H](NC(=O)[C@H](CCC(=O)O)NC(=O)[C@H](CC(=O)O)NC(=O)[C@H](CO)NC(=O)[C@H](Cc1ccccc1)NC(=O)[C@H](CO)NC(=O)CNC(=O)[C@H](CC(=O)O)NC(=O)CNC(=O)[C@@H](N)Cc1c[nH]cn1)C(=O)N[C@@H](CC(N)=O)C(=O)N[C@H](C(=O)N[C@H](C(=O)N[C@@H](CC(C)C)C(=O)N[C@@H](CC(=O)O)C(=O)N[C@@H](Cc1c[nH]c2ccccc12)C(=O)N[C@@H](CC(C)C)C(=O)N[C@@H](C)C(=O)N[C@@H](C)C(=O)N[C@@H](CCCNC(=N)N)C(=O)N[C@@H](CC(=O)O)C(=O)N[C@@H](Cc1ccccc1)C(=O)N[C@H](C(=O)N[C@@H](CC(N)=O)C(=O)N[C@@H](Cc1c[nH]c2ccccc12)C(=O)N[C@@H](CC(C)C)C(=O)N[C@H](C(=O)N[C@@H](CCC(N)=O)C(=O)N[C@H](C(=O)N[C@@H](CCCCN)C(N)=O)[C@@H](C)O)[C@@H](C)CC)[C@@H](C)CC)[C@@H](C)CC)[C@@H](C)O [Compound 22, [Gly2,Nle10,Trp16] hGLP-2 (1-30)-NH2] (H-HGDGSFSDE[Nle]NTILDWLAARDFINWLIQTK-NH2)

Second part, the compound before the results:

Row | SMILES | clearance [mL/kg/min]
3 | CCCC[C@H](NC(=O)[C@H](CCC(=O)O)NC(=O)[C@H](CC(=O)O)NC(=O)[C@H](CO)NC(=O)[C@H](Cc1ccccc1)NC(=O)[C@H](CO)NC(=O)CNC(=O)[C@H](CC(=O)O)NC(=O)CNC(=O)[C@@H](N)Cc1c[nH]cn1)C(=O)N[C@@H](CC(N)=O)C(=O)N[C@H](C(=O)N[C@H](C(=O)N[C@@H](CC(C)C)C(=O)N[C@@H](CC(=O)O)C(=O)N[C@@H](Cc1ccc(O)cc1)C(=O)N[C@@H](CC(C)C)C(=O)N[C@@H](C)C(=O)N[C@@H](C)C(=O)N[C@@H](CCCNC(=N)N)C(=O)N[C@@H](CC(=O)O)C(=O)N[C@@H](Cc1ccccc1)C(=O)N[C@H](C(=O)N[C@@H](CC(N)=O)C(=O)N[C@@H](Cc1c[nH]c2ccccc12)C(=O)N[C@@H](CC(C)C)C(=O)N[C@H](C(=O)N[C@@H](CCC(N)=O)C(=O)N[C@H](C(=O)N[C@@H](CCCCN)C(N)=O)[C@@H](C)O)[C@@H](C)CC)[C@@H](C)CC)[C@@H](C)CC)[C@@H](C)O [Compound 18, [Gly2,Nle10,Tyr16] hGLP-2 (1-30)-NH2] (H-HGDGSFSDE[Nle]NTILDYLAARDFINWLIQTK-NH2) | 1.2
4 | CCCC[C@H](NC(=O)[C@H](CCC(=O)O)NC(=O)[C@H](CC(=O)O)NC(=O)[C@H](CO)NC(=O)[C@H](Cc1ccccc1)NC(=O)[C@H](CO)NC(=O)CNC(=O)[C@H](CC(=O)O)NC(=O)CNC(=O)[C@@H](N)Cc1cnc[nH]1)C(=O)N[C@@H](CC(N)=O)C(=O)N[C@H](C(=O)N[C@H](C(=O)N[C@@H](CC(C)C)C(=O)N[C@@H](CC(=O)O)C(=O)N[C@@H](CC1CCCCC1)C(=O)N[C@@H](CC(C)C)C(=O)N[C@@H](C)C(=O)N[C@@H](C)C(=O)N[C@@H](CCCNC(=N)N)C(=O)N[C@@H](CC(=O)O)C(=O)N[C@@H](Cc1ccccc1)C(=O)N[C@H](C(=O)N[C@@H](CC(N)=O)C(=O)N[C@@H](Cc1c[nH]c2ccccc12)C(=O)N[C@@H](CC(C)C)C(=O)N[C@H](C(=O)N[C@@H](CCC(N)=O)C(=O)N[C@H](C(=O)N[C@@H](CCCCN)C(N)=O)[C@@H](C)O)[C@@H](C)CC)[C@@H](C)CC)[C@@H](C)CC)[C@@H](C)O [Compound 23, [Gly2,Nle10,Cha16] hGLP-2 (1-30)-NH2] (H-HGDGSFSDE[Nle]NTILD[Cha]LAARDFINWLIQTK-NH2) | 0.41
5 | CCCC[C@H](NC(=O)[C@H](CCC(=O)O)NC(=O)[C@H](CC(=O)O)NC(=O)[C@H](CO)NC(=O)[C@H](Cc1ccccc1)NC(=O)[C@H](CO)NC(=O)CNC(=O)[C@H](CC(=O)O)NC(=O)CNC(=O)[C@@H](N)Cc1c[nH]cn1)C(=O)N[C@@H](CC(N)=O)C(=O)N[C@H](C(=O)N[C@H](C(=O)N[C@@H](CC(C)C)C(=O)N[C@@H](CC(=O)O)C(=O)N[C@@H](Cc1ccc(N)cc1)C(=O)N[C@@H](CC(C)C)C(=O)N[C@@H](C)C(=O)N[C@@H](C)C(=O)N[C@@H](CCCNC(=N)N)C(=O)N[C@@H](CC(=O)O)C(=O)N[C@@H](Cc1ccccc1)C(=O)N[C@H](C(=O)N[C@@H](CC(N)=O)C(=O)N[C@@H](Cc1c[nH]c2ccccc12)C(=O)N[C@@H](CC(C)C)C(=O)N[C@H](C(=O)N[C@@H](CCC(N)=O)C(=O)N[C@H](C(=O)N[C@@H](CCCCN)C(N)=O)[C@@H](C)O)[C@@H](C)CC)[C@@H](C)CC)[C@@H](C)CC)[C@@H](C)O [Compound 24, [Gly2,Nle10,Aph16] hGLP-2 (1-30)-NH2] (H-HGDGSFSDE[Nle]NTILD[Phe(4-NH2)]LAARDFINWLIQTK-NH2) | 1.9
6 | CCCC[C@H](NC(=O)[C@H](CCC(=O)O)NC(=O)[C@H](CC(=O)O)NC(=O)[C@H](CO)NC(=O)[C@H](Cc1ccccc1)NC(=O)[C@H](CO)NC(=O)CNC(=O)[C@H](CC(=O)O)NC(=O)CNC(=O)[C@@H](N)Cc1c[nH]cn1)C(=O)N[C@@H](CC(N)=O)C(=O)N[C@H](C(=O)N[C@H](C(=O)N[C@@H](CC(C)C)C(=O)N[C@@H](CC(=O)O)C(=O)N[C@H](C(=O)N[C@@H](CC(C)C)C(=O)N[C@@H](C)C(=O)N[C@@H](C)C(=O)N[C@@H](CCCNC(=N)N)C(=O)N[C@@H](CC(=O)O)C(=O)N[C@@H](Cc1ccccc1)C(=O)N[C@H](C(=O)N[C@@H](CC(N)=O)C(=O)N[C@@H](Cc1c[nH]c2ccccc12)C(=O)N[C@@H](CC(C)C)C(=O)N[C@H](C(=O)N[C@@H](CCC(N)=O)C(=O)N[C@H](C(=O)N[C@@H](CCCCN)C(N)=O)[C@@H](C)O)[C@@H](C)CC)[C@@H](C)CC)C(c1ccccc1)c1ccccc1)[C@@H](C)CC)[C@@H](C)O [Compound 26, [Gly2,Nle10,Dip16] hGLP-2 (1-30)-NH2] (H-HGDGSFSDE[Nle]NTILD[Dip]LAARDFINWLIQTK-NH2) | 0.33
7 | CCCC[C@H](NC(=O)[C@H](CCC(=O)O)NC(=O)[C@H](CC(=O)O)NC(=O)[C@H](CO)NC(=O)[C@H](Cc1ccccc1)NC(=O)[C@H](CO)NC(=O)CNC(=O)[C@H](CC(=O)O)NC(=O)CNC(=O)[C@@H](N)Cc1c[nH]cn1)C(=O)N[C@@H](CC(N)=O)C(=O)N[C@H](C(=O)N[C@H](C(=O)N[C@@H](CC(C)C)C(=O)N[C@@H](CC(=O)O)C(=O)N[C@@H](CCc1ccccc1)C(=O)N[C@@H](CC(C)C)C(=O)N[C@@H](C)C(=O)N[C@@H](C)C(=O)N[C@@H](CCCNC(=N)N)C(=O)N[C@@H](CC(=O)O)C(=O)N[C@@H](Cc1ccccc1)C(=O)N[C@H](C(=O)N[C@@H](CC(N)=O)C(=O)N[C@@H](Cc1c[nH]c2ccccc12)C(=O)N[C@@H](CC(C)C)C(=O)N[C@H](C(=O)N[C@@H](CCC(N)=O)C(=O)N[C@H](C(=O)N[C@@H](CCCCN)C(N)=O)[C@@H](C)O)[C@@H](C)CC)[C@@H](C)CC)[C@@H](C)CC)[C@@H](C)O [Compound 28, [Gly2,Nle10,hPhe16] hGLP-2 (1-30)-NH2] (H-HGDGSFSDE[Nle]NTILD[hPhe]LAARDFINWLIQTK-NH2) | 0.44

Same assay, conditions: rat, plasma, adult male Sprague-Dawley rats, i.v. bolus, dose 0.18 mg FB/kg, read-out: CL (ml/kg/min) Average

Row | clearance [mL/kg/min] | SMILES
8 | 0.28 | CCCC[C@H](NC(=O)[C@H](CCC(=O)O)NC(=O)[C@H](CC(=O)O)NC(=O)[C@H](CO)NC(=O)[C@H](Cc1ccccc1)NC(=O)[C@H](CO)NC(=O)CNC(=O)[C@H](CC(=O)O)NC(=O)CNC(=O)[C@@H](N)Cc1c[nH]cn1)C(=O)N[C@@H](CC(N)=O)C(=O)N[C@H](C(=O)N[C@H](C(=O)N[C@@H](CC(C)C)C(=O)N[C@@H](CC(=O)O)C(=O)N[C@@H](Cc1ccc2ccccc2c1)C(=O)N[C@@H](CC(C)C)C(=O)N[C@@H](C)C(=O)N[C@@H](C)C(=O)N[C@@H](CCCNC(=N)N)C(=O)N[C@@H](CC(=O)O)C(=O)N[C@@H](Cc1ccccc1)C(=O)N[C@H](C(=O)N[C@@H](CC(N)=O)C(=O)N[C@@H](Cc1c[nH]c2ccccc12)C(=O)N[C@@H](CC(C)C)C(=O)N[C@H](C(=O)N[C@@H](CCC(N)=O)C(=O)N[C@H](C(=O)N[C@@H](CCCCN)C(N)=O)[C@@H](C)O)[C@@H](C)CC)[C@@H](C)CC)[C@@H](C)CC)[C@@H](C)O [Compound 20, [Gly2,Nle10,2-Nal16] hGLP-2 (1-30)-NH2] (H-HGDGSFSDE[Nle]NTILD[2Nal]LAARDFINWLIQTK-NH2)
